Measurements taken from EP3002287B1, “Thiochromeno[2,3-c]quinolin-12-one derivatives and their use as topoisomerase inhibitors” (National Defense Medical Center, priority 2014, dated 2016).

How the values were obtained:
TOP II = target: T1, TOP II (Homo sapiens, UniProt P11388); assay: Topoisomerase II activity assay (TOP II-catalyzed relaxation of plasmid DNA); assay type: biochemical; conditions: primary assay at 25 and/or 50 µM
T1 construct: purchased TopoGEN TG-2000H-1
Protocol: We also performed TOP 11-catalyzed relaxation of plasmid DNA assays(Fig. 5-7) to evaluate if compounds could inhibit TOP II. […] The IC50 value of compounds 7, N7, N8, N14, N15, N18, and N19 were about 10, 10, 1, 10, 5, 1, and 1 µM, respectively (detect by TopoGEN TG2005H, TG-2000H-1).

TOP I = target: T2, TOP I (Homo sapiens, UniProt P11387); assay: Topoisomerase I activity assay (DNA relaxation catalyzed by TOP I); assay type: biochemical; conditions: primary assay at 25 and/or 50 µM
T2 construct: purchased TopoGEN TG2005H
T2 sequence (P11387 1-765): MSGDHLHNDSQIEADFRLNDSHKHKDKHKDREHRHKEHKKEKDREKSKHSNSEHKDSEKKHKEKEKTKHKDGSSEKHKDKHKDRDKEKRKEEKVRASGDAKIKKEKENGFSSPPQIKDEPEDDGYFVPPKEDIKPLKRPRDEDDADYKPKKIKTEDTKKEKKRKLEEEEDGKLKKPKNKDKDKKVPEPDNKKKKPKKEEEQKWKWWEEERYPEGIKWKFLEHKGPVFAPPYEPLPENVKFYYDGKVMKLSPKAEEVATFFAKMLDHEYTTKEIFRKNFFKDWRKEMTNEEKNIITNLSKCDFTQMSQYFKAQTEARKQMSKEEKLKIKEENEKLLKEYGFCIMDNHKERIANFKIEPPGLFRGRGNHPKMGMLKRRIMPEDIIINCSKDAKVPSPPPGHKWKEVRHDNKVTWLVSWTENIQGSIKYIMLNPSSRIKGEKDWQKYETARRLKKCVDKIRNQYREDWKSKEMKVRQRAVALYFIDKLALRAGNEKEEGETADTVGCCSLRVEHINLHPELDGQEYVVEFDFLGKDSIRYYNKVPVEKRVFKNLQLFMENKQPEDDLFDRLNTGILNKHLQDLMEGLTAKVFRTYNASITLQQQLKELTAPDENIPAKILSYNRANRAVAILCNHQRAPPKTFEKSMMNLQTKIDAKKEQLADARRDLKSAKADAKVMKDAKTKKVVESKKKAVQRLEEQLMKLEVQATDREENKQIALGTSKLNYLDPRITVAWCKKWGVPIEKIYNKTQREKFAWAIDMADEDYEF
Protocol: According to the cell cytotoxicity, compounds 5, 7, 8, 16, 19, N2, N7, N8, N9, N14-N19, and N25 were also selected for primary TOP I and II activities assays at 25 and/or 50 µM (Fig. 2-4).

PC-3 = assay: MTT assay for cell cytotoxicity; assay type: cell-based, human; conditions: Homo sapiens, 72 h, at least three independent experiments, read-out: MTT assay (IC50 ± SD) PC-3
Protocol: (§1) All of synthesis compounds were evaluated cell cytotoxicity by using MTT colorimetric assay on PC-3 and DU-145 cell lines. DU-145 and PC-3 are human hormone-refractory (androgen-independent) prostatic cancer cell lines from American Type Culture Collection (HTB-81™, ATCC, Rockville, MD)^125 and Bioresource Collection and Research Center (60122, BCRC, Taiwan)^126, respectively. Two of the "classical" cell lines were cultivated in RPMI-1640 medium supplemented with 5% fetal bovine serum (v/v), 100 U/mL penicillin, and […] streptomycin. Approximately 2 x 10^3 cells were seeded into each well of a 96-well plate and incubated in 5% CO2 at 37 °C for 24 h. To evaluate the in vitro cytotoxicity, all the synthetic compounds were dissolved in DMSO, prepared immediately before the experiments and diluted into the complete medium before being added to each well of a 96-well plate. Each compound was then added to the culture medium for designated various concentrations (0.15, 0.5, 1.5, 5, 15 µM). After 72 h, an amount of 100 µL of MTT (1 mg/mL) was added to each well, and the samples were incubated at 37 °C for 4 h. After removing the MTT solution, 100 µL of DMSO was added to each well and incubated at 37 °C for another 20 mins. The absorbency at 560 nm was measured by using an ELISA reader.
(§2) Results are expressed as mean values of at least three independent experiments. The IC50 values of testing compounds were described in Table 1. Table1. Effects of 10-Chloro-12H-thiochromeno[2,3-c]quinolin -12-one derivatives on cytotoxicity by MTT assay.

DU-145 = assay: MTT assay for cell cytotoxicity; assay type: cell-based, human; conditions: Homo sapiens, 72 h, at least three independent experiments, read-out: MTT assay (IC50 ± SD) DU-145
Protocol: as §1, §2

T1 sequence (P11388 whole entry): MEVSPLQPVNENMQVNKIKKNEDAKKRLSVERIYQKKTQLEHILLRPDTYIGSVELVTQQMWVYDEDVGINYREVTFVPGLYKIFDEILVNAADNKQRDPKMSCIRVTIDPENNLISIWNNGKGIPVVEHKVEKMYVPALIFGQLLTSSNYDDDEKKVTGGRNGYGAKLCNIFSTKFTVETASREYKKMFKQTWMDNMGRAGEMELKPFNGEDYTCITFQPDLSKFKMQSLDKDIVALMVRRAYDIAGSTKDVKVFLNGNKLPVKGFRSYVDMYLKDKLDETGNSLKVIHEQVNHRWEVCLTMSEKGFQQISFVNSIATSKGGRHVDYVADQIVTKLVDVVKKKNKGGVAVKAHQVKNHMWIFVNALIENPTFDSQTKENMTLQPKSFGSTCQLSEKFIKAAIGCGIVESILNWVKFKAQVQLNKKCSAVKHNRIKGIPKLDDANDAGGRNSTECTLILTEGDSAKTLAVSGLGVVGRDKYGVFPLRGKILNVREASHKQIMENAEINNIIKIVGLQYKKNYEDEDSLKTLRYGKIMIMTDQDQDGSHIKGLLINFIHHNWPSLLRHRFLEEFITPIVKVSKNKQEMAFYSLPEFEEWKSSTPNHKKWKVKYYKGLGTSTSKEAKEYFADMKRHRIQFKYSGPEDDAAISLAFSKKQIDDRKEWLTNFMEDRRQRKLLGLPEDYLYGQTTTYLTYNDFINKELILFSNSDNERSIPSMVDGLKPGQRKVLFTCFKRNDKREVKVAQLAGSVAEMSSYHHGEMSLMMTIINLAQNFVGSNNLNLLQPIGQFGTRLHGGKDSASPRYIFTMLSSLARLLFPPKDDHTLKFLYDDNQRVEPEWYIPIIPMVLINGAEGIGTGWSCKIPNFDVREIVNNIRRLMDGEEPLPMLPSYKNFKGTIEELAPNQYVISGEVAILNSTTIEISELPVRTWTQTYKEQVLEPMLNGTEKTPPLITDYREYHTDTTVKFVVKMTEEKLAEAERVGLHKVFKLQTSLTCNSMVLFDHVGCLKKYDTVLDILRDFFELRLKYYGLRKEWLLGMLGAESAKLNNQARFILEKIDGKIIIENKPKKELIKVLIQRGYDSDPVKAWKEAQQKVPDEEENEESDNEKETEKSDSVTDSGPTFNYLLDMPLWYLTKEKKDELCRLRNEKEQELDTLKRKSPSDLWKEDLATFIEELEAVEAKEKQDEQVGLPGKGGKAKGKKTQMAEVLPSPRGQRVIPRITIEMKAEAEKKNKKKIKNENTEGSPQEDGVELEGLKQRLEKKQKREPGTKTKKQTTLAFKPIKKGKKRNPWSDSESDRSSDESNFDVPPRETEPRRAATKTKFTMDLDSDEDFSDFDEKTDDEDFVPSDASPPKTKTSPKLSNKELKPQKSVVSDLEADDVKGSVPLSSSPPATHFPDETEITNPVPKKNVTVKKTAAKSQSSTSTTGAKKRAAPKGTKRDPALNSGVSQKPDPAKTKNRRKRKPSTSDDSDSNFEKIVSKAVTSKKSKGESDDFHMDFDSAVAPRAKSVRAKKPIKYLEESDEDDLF

inhibitory effects in TOP I activity assay compared with CPT (TOP I) | SMILES | inhibitory effects on TOP II compared with the positive agent VP-16 (TOP II) | IC50 (PC-3) | IC50 (DU-145)
more potent inhibitory effects than CPT | CCN(CC)CCCNc1nc2ccccc2c2c(=O)c3cc(Cl)ccc3sc12 [Compound N18, 10-Chloro-6-((3-(diethylamino)propyl)amino)-12H-thiochrome no[2,3-c]quinolin-12-one] | more potent inhibitory effects than the positive agent VP-16 | 2220 ± 210 nM | 3530 ± 1050 nM
more potent inhibitory effects than CPT | O=c1c2cc(Cl)ccc2sc2c(NCc3ccccc3)nc3ccccc3c12 [Compound N25, 6-(Benzylamino)-10-chloro-12H-thiochromeno[2,3-c]quinolin-12-tone] | – | 11200 ± 1550 nM | 13500 ± 690 nM
more potent inhibitory effects than CPT | CN(C)CCNc1nc2ccccc2c2c(=O)c3cc(Cl)ccc3sc12 [Compound N7, 10-Chloro-6-((2-(dimethylamino)ethyl)amino)-12H-thiochrome no[2,3-c]quinolin-12-one] | more potent inhibitory effects than the positive agent VP-16 | 2250 ± 610 nM | 5940 ± 3450 nM
more potent inhibitory effects than CPT | CN(C)CCCNc1nc2ccccc2c2c(=O)c3cc(Cl)ccc3sc12 [Compound N17, 10-Chloro-6-((3-(dimethylamino)propyl)amino)-12H-thiochrom eno[2,3-c]quinolin-12-one] | – | 2270 ± 90 nM | 2700 ± 160 nM
more potent inhibitory effects than CPT | O=c1c2cc(Cl)ccc2sc2c(NCCNCCO)nc3ccccc3c12 [Compound N15, 10-Chloro-6-((2-((2-hydroxyethyl)amino)ethyl)amino)-12H-thio chromen[2,3-c]quinolin-12-one] | more potent inhibitory effects than the positive agent VP-16 | 3440 ± 1810 nM | 3810 ± 1880 nM
– | O=c1c2cc(Cl)ccc2sc2c(NCCCNCCO)nc3ccccc3c12 [Compound N19, 10-Chloro-6-((3-((2-hydroxyethyl)amino)propyl)amino)-12H-th iochromeno[2,3-c]quinolin-12-one] | more potent inhibitory effects than the positive agent VP-16 | 1980 ± 720 nM | 1500 ± 1320 nM
– | O=c1c2cc(Cl)ccc2sc2c(NCc3ccc4c(c3)OCO4)nc3ccccc3c12 [Compound N27, 6-((Benzo[d][1,3]dioxol-5-ylmethyl)amino)-10-chloro-12H-thio chromeno[2,3-c]quinolin-12-one] | – | > 15000 nM | 11800 ± 5830 nM
– | O=C1c2c(O)ccc(O)c2C(=O)c2c(NCCNCCO)ccc(NCCNCCO)c21 [Mitoxantrone, reference compound] | – | 390 ± 20 nM | 100 ± 10 nM
more potent inhibitory effects than CPT | O=c1c2cc(Cl)ccc2sc2c(N3CCNCC3)nc3ccccc3c12 [Compound 7, 10-Chloro-6-(piperazin-1-yl)-12H-thiochromeno[2,3-c]quinolin-12-one] | more potent inhibitory effects than the positive agent VP-16 | 2840 ± 640 nM | 5010 ± 1680 nM
more potent inhibitory effects than CPT | NCCNc1nc2ccccc2c2c(=O)c3cc(Cl)ccc3sc12 [Compound N14, 6-((2-Aminoethyl)amino)-10-chloro-12H-thiochromeno[2,3-c]q uinolin-12-one] | more potent inhibitory effects than the positive agent VP-16 | 1640 ± 550 nM | 1800 ± 400 nM
– | CCN(CC)CCNc1nc2ccccc2c2c(=O)c3cc(Cl)ccc3sc12 [Compound N8, 10-Chloro-6-((2-(diethylamino)ethyl)amino)-12H-thiochromen o[2,3-c]quinolin-12-one] | more potent inhibitory effects than the positive agent VP-16 | 1110 ± 690 nM | 1730 ± 720 nM
– | O=c1c2cc(Cl)ccc2sc2c(NCc3cccs3)nc3ccccc3c12 [Compound N23, 10-Chloro-6-((thiophen-2ylmethyl)amino)-12H-thiochromeno[2,3-c]quinolin-12-one] | – | > 15000 nM | 14600 ± 3840 nM
– | O=c1c2cc(Cl)ccc2sc2c(N3CCCC3)nc3ccccc3c12 [Compound 20, 10-Chloro-6-(pyrrolidin-1-yl)-12H-thiochromeno[2,3-c]quinolin-12-one] | – | > 15000 nM | > 15000 nM
